{
  "source": "patent US12516039B2",
  "about": "“N-linked isoquinoline amides as LRRK2 inhibitors, pharmaceutical compositions, and uses thereof” (Merck Sharp & Dohme LLC, priority 2020, dated 2026)",
  "data": [
    {"biological_target": "T1, GST-tagged truncated human mutant G2019S LRRK2 (Homo sapiens, UniProt Q5S007, G2019S)", "T1 construct": "GST-tagged truncated human mutant G2019S LRRK2; purchased Life Technologies Corporation (Carlsbad, CA)", "T1 sequence (Q5S007 970-2527 G2019S limits assumed)": "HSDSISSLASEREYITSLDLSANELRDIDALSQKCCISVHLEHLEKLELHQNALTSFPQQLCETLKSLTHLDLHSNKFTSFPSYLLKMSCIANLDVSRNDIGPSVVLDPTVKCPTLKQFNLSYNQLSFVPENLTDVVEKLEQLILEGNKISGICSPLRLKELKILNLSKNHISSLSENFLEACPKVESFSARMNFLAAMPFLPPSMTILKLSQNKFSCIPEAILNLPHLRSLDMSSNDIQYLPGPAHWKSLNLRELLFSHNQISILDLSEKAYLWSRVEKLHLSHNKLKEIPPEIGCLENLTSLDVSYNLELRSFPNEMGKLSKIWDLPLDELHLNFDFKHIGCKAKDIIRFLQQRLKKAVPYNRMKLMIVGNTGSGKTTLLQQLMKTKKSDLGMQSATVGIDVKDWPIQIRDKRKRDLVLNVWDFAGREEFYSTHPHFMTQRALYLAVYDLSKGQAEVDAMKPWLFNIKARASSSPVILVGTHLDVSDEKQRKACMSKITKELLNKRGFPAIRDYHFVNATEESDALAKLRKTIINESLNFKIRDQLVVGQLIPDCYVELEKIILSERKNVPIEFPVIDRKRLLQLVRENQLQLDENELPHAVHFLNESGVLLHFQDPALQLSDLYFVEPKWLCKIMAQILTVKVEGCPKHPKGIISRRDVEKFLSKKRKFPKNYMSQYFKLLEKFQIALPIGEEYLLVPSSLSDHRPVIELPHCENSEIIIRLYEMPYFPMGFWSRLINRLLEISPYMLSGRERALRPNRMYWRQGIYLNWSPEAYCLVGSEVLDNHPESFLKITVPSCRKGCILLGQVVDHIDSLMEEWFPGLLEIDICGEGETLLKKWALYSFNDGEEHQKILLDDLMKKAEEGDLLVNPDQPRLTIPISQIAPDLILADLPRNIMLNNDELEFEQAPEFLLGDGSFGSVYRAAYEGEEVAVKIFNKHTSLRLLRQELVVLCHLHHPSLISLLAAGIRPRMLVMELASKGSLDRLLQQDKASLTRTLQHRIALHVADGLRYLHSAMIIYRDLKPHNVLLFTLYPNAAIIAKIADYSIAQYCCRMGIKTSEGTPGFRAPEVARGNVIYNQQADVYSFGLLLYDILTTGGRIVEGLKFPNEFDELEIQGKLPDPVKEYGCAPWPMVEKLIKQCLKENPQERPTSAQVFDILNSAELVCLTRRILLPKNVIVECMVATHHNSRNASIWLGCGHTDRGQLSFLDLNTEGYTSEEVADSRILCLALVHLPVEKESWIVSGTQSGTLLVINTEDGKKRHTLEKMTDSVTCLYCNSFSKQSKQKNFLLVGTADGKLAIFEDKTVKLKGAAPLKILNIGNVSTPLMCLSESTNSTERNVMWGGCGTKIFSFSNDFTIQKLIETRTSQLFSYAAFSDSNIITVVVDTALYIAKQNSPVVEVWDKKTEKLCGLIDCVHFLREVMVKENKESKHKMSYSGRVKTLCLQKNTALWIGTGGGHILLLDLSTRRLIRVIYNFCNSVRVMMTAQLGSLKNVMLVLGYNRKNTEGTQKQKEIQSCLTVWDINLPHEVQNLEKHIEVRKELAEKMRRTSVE", "test": "LRRK2 G2019S Km ATP LanthaScreen assay", "format": "biochemical", "conditions": "134 μM ATP (Km ATP), LRRKtide substrate, mean of several tests", "how_it_was_run": "(§1)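 GST-tagged truncated human LRRK2 G2019S (1.25 nM enzyme solution) was preincubated 15 min with compound, then reacted 90 min at ambient temperature with fluorescein-LRRKtide (400 nM solution) and 134 μM ATP (Km) in Tris pH 8.5. EDTA stop; Tb anti-phospho-LRRKtide TR-FRET (520/495 ratio). IC50 from 4-parameter fits, mean of several runs.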", "values": [
      {"molecule": "(3R or 3S)-N-[6-[4-((3R,4R or 3S,4S)-4-fluoro-3-methyl-tetrahydrofuran-3-yl)piperazin-1-yl]-7-methyl-3-isoquinolyl]-5,5-dimethyl-tetrahydrofuran-3-carboxamide [Ex-10.95]", "LRRK2 pIC50": 9.64},
      {"molecule": "O=C(Nc1cc2cc(N3CCC(N4CC(F)C4)CC3)c(Cl)cc2cn1)C1CC12CCOCC2", "note": "(stereo not shown) [Ex-4.6]", "LRRK2 pIC50": 8.61},
      {"molecule": "CN1CCN(c2cc3cc(NC(=O)C4CC4)ncc3cc2Cl)CC1", "note": "[Ex-8.2]", "LRRK2 pIC50": 7.53},
      {"molecule": "O=C(Nc1cc2cc(N3CCN(C4COC4)CC3)c(Cl)cc2cn1)C1CC1", "note": "[Ex-8.1, N-(7-chloro-6-(4-(oxetan-3-yl)piperazin-1-yl)isoquinolin-3-yl)cyclopropanecarboxamide]", "LRRK2 pIC50": 7.99},
      {"molecule": "Cc1cc2cnc(NC(=O)C3CC34CCOCC4)cc2cc1N1CCN(C2(C)COCC2O)[C@@H](C)C1", "note": "(stereo partly shown) [Ex-6.10]", "LRRK2 pIC50": 9.26}
    ]},
    {"biological_target": "T1, GST-tagged truncated human mutant G2019S LRRK2", "test": "LRRK2 G2019S Km ATP LanthaScreen assay", "format": "biochemical", "conditions": "134 μM ATP (Km ATP), LRRKtide substrate, mean of several tests, read-out: LRRK2 pIC50 (converted)", "how_it_was_run": "as §1", "units": {"IC50": "nM"}, "values": [
      {"molecule": "CCc1cc2cnc(NC(=O)C3CC34CCOCC4)cc2cc1N1CCN(C2(C)COCC2O)CC1", "note": "(single isomer, unassigned) [Ex-12, (R or S)-N-(7-ethyl-6-(4-(4-(3R,4R or 3S,4S)-hydroxy-3-methyltetrahydrofuran-3-yl)piperazin-1-yl)isoquinolin-3-yl)-6-oxaspiro[2.5]octane-1-carboxamide]", "IC50": 0.525},
      {"molecule": "CCOC1CC1C(=O)Nc1cc2cc(N3CCN(C4(C)COCC4O)CC3)c(Cl)cc2cn1", "note": "(single isomer, unassigned) [Ex-10.12]", "IC50": 0.0832},
      {"molecule": "COC1COCC1N1CCN(c2cc3cc(NC(=O)C4CC45CCOCC5)ncc3cc2Cl)CC1", "note": "(single isomer, unassigned) [Ex-5.9]", "IC50": 1510},
      {"molecule": "CC1(C2CCOC2)CC1C(=O)Nc1cc2cc(N3CCN(C4(C)COCC4O)CC3)c(Cl)cc2cn1", "note": "(single isomer, unassigned) [Ex-10.84, (1R,2R or 1S,2S, or 1R,2S, or 1S,2R)-N-[7-chloro-6-[4-((3R,4R or 3S,4S)-4-hydroxy-3-methyl-tetrahydrofuran-3-yl)piperazin-1-yl]-3-isoquinolyl]-2-methyl-2-tetrahydrofuran-3-yl-cyclopropanecarboxamide]", "IC50": 0.214},
      {"molecule": "CC1(C2CCOC2)CC1C(=O)Nc1cc2cc(N3CCN(C4(C)COCC4O)CC3)c(Cl)cc2cn1", "note": "(single isomer, unassigned) [Ex-10.87, (1R,2R or 1S,2S, or 1R,2S, or 1S,2R)-N-[7-chloro-6-[4-((3R,4R or 3S,4S)-4-hydroxy-3-methyl-tetrahydrofuran-3-yl)piperazin-1-yl]-3-isoquinolyl]-2-methyl-2-tetrahydrofuran-3-yl-cyclopropanecarboxamide]", "IC50": 0.0813},
      {"molecule": "CC1(N2CCN(c3cc4cc(NC(=O)C5CC56CCOC6)ncc4cc3Cl)CC2)COCC1O", "note": "(single isomer, unassigned) [Ex-2.10, (1R,3R or 1S,3S)-N-(7-chloro-6-(4-((3R,4R or 3S,4S)-4-hydroxy-3-methyltetrahydrofuran-3-yl)piperazin-1-yl)isoquinolin-3-yl)-5-oxaspiro[2.4]heptane-1-carboxamide]", "IC50": 0.589},
      {"molecule": "CC1C(C(=O)Nc2cc3cc(N4CCN(C5(C)COCC5F)CC4)c(Cl)cc3cn2)C1c1ccn(C)n1", "note": "(single isomer, unassigned) [Ex-10.16]", "IC50": 7.94},
      {"molecule": "CC1(N2CCN(c3cc4cc(NC(=O)C5CC56CCCOC6)ncc4cc3Cl)CC2)COCC1O", "note": "(single isomer, unassigned) [Ex-1.12, (1R,3S, or 1R,3R, or 1S,3S, or 1S,3R)-N-(7-chloro-6-(4-((3R,4R or 3S,4S)-4-hydroxy-3-methyltetrahydrofuran-3-yl)piperazin-1-yl)isoquinolin-3-yl)-5-oxaspiro[2.5]octane-1-carboxamide]", "IC50": 3.72},
      {"molecule": "CC1C(C(=O)Nc2cc3cc(N4CCN(C5(C)CCOC5)CC4)c(Cl)cc3cn2)C1c1cnn(C)c1", "note": "(single isomer, unassigned) [Ex-9.7]", "IC50": 0.0813},
      {"molecule": "Cc1cc2cnc(NC(=O)C3CC3c3cnn(C)c3C(F)(F)F)cc2cc1N1CCN(C2(C)CCOC2)CC1", "note": "(single isomer, unassigned) [Ex-10.34, (1R,2R or 1S,2S)-N-[7-methyl-6-[4-((R or S)-3-methyltetrahydrofuran-3-yl)piperazin-1-yl]-3-isoquinolyl]-2-[1-methyl-5-(trifluoromethyl)pyrazol-4-yl]cyclopropanecarboxamide]", "IC50": 69.2},
      {"molecule": "CC1(C2CCOC2)CC1C(=O)Nc1cc2cc(N3CCN(C4(C)COCC4O)CC3)c(Cl)cc2cn1", "note": "(single isomer, unassigned) [Ex-10.85, (1R,2R or 1S,2S, or 1R,2S, or 1S,2R)-N-[7-chloro-6-[4-((3R,4R or 3S,4S)-4-hydroxy-3-methyl-tetrahydrofuran-3-yl)piperazin-1-yl]-3-isoquinolyl]-2-methyl-2-tetrahydrofuran-3-yl-cyclopropanecarboxamide]", "IC50": 0.0813},
      {"molecule": "Cc1cc2cnc(NC(=O)C3CC3c3ccccn3)cc2cc1N1CCN(C2(C)COCC2F)CC1", "note": "(single isomer, unassigned) [Ex-6.13]", "IC50": 0.0813},
      {"molecule": "Cc1cc2cnc(NC(=O)C3C(C)C3c3cnn(C)c3)cc2cc1N1CCN(C2(C)CCOC2)CC1", "note": "(single isomer, unassigned) [Ex-9.14]", "IC50": 0.0813},
      {"molecule": "CC1(N2CCN(c3cc4cc(NC(=O)C5CC56CCCOC6)ncc4cc3Cl)CC2)COCC1O", "note": "(single isomer, unassigned) [Ex-1.11, (1R,3S, or 1R,3R, or 1S,3S, or 1S,3R)-N-(7-chloro-6-(4-((3R,4R or 3S,4S)-4-hydroxy-3-methyltetrahydrofuran-3-yl)piperazin-1-yl)isoquinolin-3-yl)-5-oxaspiro[2.5]octane-1-carboxamide]", "IC50": 1.7},
      {"molecule": "Cc1cc2cnc(NC(=O)C3CC34CCOC4)cc2cc1N1CCN(C2(C)COCC2O)CC1", "note": "(single isomer, unassigned) [Ex-6.5, (1R, 3S or 1S,3R, or 1R,3S, or 1S,3S)-N-(6-(4-((3R, 4R or 3S,4S)-4-hydroxy-3-methyltetrahydrofuran-3-yl)piperazin-1-yl)-7-methylisoquinolin-3-yl)-5-oxaspiro[2.4]heptane-1-carboxamide]", "IC50": 1.05},
      {"molecule": "CC1(N2CCN(c3cc4cc(NC(=O)C5CC5c5ccco5)ncc4cc3Cl)CC2)COCC1O", "note": "(single isomer, unassigned) [Ex-10.30, (1R,2R or 1S,2S)-N-[7-chloro-6-[4-((3R,4R or 3S,4S)-4-hydroxy-3-methyl-tetrahydrofuran-3-yl)piperazin-1-yl]-3-isoquinolyl]-2-(2-furyl)cyclopropanecarboxamide]", "IC50": 0.0813},
      {"molecule": "CCC1C(C(=O)Nc2cc3cc(N4CCN(C5(C)CCOC5)CC4)c(C)cc3cn2)C1c1cnn(C)c1", "note": "(single isomer, unassigned) [Ex-10.37, (1R,2R,3R, 1R,2S,3R, 1S,2R,3S, or 1S,2S,3S)-2-ethyl-N-[7-methyl-6-[4-((R or S)-3-methyltetrahydrofuran-3-yl)piperazin-4-ium-1-yl]-3-isoquinolyl]-3-(1-methylpyrazol-4-yl)cyclopropanecarboxamide]", "IC50": 0.0813},
      {"molecule": "O=C(Nc1cc2cc(N3CCN(C4COCC4O)CC3)c(Cl)cc2cn1)C1CC1", "note": "(single isomer, unassigned) [Ex-1.4, (3R,4R or 3S,4S)-N-(7-chloro-6-(4-(4-hydroxytetrahydrofuran-3-yl)piperazin-1-yl)isoquinolin-3-yl)cyclopropanecarboxamide]", "IC50": 57.5},
      {"molecule": "N#CC1CCN(c2cc3cc(NC(=O)C4CC4c4cncnc4)ncc3cc2Cl)CC1", "note": "(single isomer, unassigned) [Ex-5.17]", "IC50": 0.0813},
      {"molecule": "C[C@]1(O)COC[C@@]1(C)N1CCN(c2cc3cc(NC(=O)[C@@H]4CC45CCOCC5)ncc3cc2Cl)CC1", "note": "(single isomer, unassigned) [Ex-17.2, (R) or (S)-N-(7-chloro-6-((3R,4R) or (3S,4S)-4-(4-hydroxy-3,4-dimethyltetrahydrofuran-3-yl)piperazin-1-yl)isoquinolin-3-yl)-6-oxaspiro[2.5]octane-1-carboxamide]", "IC50": 0.126},
      {"molecule": "O=C(Nc1cc2cc(N3C(=O)C4CCC3C4)ccc2cn1)C1CC1", "note": "(single isomer, unassigned) [Ex-5.2]", "IC50": 25.7},
      {"molecule": "CC1(C)CC2(CCO1)CC2C(=O)Nc1cc2cc(N3CCN(C4(C)COCC4O)CC3)c(Cl)cc2cn1", "note": "(single isomer, unassigned) [Ex-7.3]", "IC50": 3.72},
      {"molecule": "CC1(C)C(C(=O)Nc2cc3cc(N4CCN(C5(C)COCC5O)CC4)c(Cl)cc3cn2)C1C1CCCCO1", "note": "(single isomer, unassigned) [Ex-10.92, (1R,2R,3R, 1R,2S,3R, or 1S,2R,3S, or 1S,2S,3S)-N-[7-chloro-6-[4-((3R,4R or 3S,4S)-4-hydroxy-3-methyl-tetrahydrofuran-3-yl)piperazin-1-yl]-3-isoquinolyl]-2,2-dimethyl-3-tetrahydropyran-2-yl-cyclopropanecarboxamide]", "IC50": 1.95},
      {"molecule": "CC1(C)CC(C(=O)Nc2cc3cc(N4CCN(C5(C)COCC5O)CC4)c(Cl)cc3cn2)CO1", "note": "(single isomer, unassigned) [Ex-1.22, (R or S)-N-(7-chloro-6-(4-((3R,4R or 3S,4S)-4-hydroxy-3-methyltetrahydrofuran-3-yl)piperazin-1-yl)isoquinolin-3-yl)-5,5-dimethyltetrahydrofuran-3-carboxamide]", "IC50": 1.17},
      {"molecule": "Cn1ncc(C2CC2C(=O)Nc2cc3cc(N4CCN(C5(C)COCC5F)CC4)c(Cl)cc3cn2)c1C(F)(F)F", "note": "(single isomer, unassigned) [Ex-10.61, (1R,2R or 1S,2S)-N-[7-chloro-6-[4-((3R,4R or 3S,4S)-4-fluoro-3-methyl-tetrahydrofuran-3-yl)piperazin-4-ium-1-yl]-3-isoquinolyl]-2-[1-methyl-5-(trifluoromethyl)pyrazol-4-yl]cyclopropanecarboxamide]", "IC50": 3.02},
      {"molecule": "Cc1cc2cnc(NC(=O)C3CC3c3ccccn3)cc2cc1N1CCN(C2(C)CCOC2)CC1", "note": "(single isomer, unassigned) [Ex-9.17]", "IC50": 1.29}
    ]}
  ]
}
